Consider 16 molecules from ChEMBL document CHEMBL1221278, “Design, synthesis, and cholesterol-lowering efficacy for prodrugs of berberrubine” (Bioorg Med Chem, 2010).

Data set [1] can be described thus: Lipophilicity, log P of the compound. In kind it is physicochemical. As to conditions: octanol/water.
Another data set has as its system HepG2. Description: Upregulation of LDLR mRNA expression in human HepG2 cells by RT-PCR. In kind it is functional, cell-based.
Data set [2] relates to Rattus norvegicus. Description: Hypolipidemic activity in high fat high cholesterol diet fed Sprague-Dawley rat hyperlipidemic model assessed as reduction in LDL cholesterol 100 mg/kg, po qd for 28 days. On the set-up: scale not given: the % may be the effect or the level left.
For data set [3], the system named is Rattus norvegicus. Description: Hypolipidemic activity in high fat high cholesterol diet fed Sprague-Dawley rat hyperlipidemic model assessed as reduction in total cholesterol 100 mg/kg, po qd for 28 days. Details: scale not given: the % may be the effect or the level left.
In data set [4] the test system is Rattus norvegicus. Description: Toxicity in high fat high cholesterol diet fed Sprague-Dawley rat hyperlipidemic model assessed as reduction in food intake at 100 mg/kg, po qd for 28 days. To be noted: in vivo, 672 h.
In data set [5] the test system is Rattus norvegicus. Description: Toxicity in high fat high cholesterol diet fed Sprague-Dawley rat hyperlipidemic model assessed as weight loss at 100 mg/kg, po qd for 28 days. As to conditions: in vivo, 672 h.
Data set [6] relates to Rattus norvegicus. Description: Toxicity in high fat high cholesterol diet fed Sprague-Dawley rat hyperlipidemic model assessed as liver of kidney function abnormalities at 100 mg/kg, po qd for 28 days. To be noted: in vivo, 672 h.

The source made the active and inactive calls. No cut-off for these calls is given here.

Turning to `CCCCCCCCCCCCCCCCCC(=O)Oc1c(OC)ccc2cc3[n+](cc12)CCc1cc2c(cc1-3)OCO2`, in data set [1], the logP (commonly a log measure of how a compound divides between an organic and an aqueous phase) was found to be 6.98. In addition, the result with HepG2 was inactive.
For `CCCCCCCCCC(=O)Oc1c(OC)ccc2cc3[n+](cc12)CCc1cc2c(cc1-3)OCO2` the same measures were 2.74 and “inactive”.
`COc1ccc2cc3[n+](cc2c1OCOC(=O)c1ccccc1)CCc1cc2c(cc1-3)OCO2` had a logP in data set [1] of 0.97. For the same molecule, in the data set with HepG2, the outcome was inactive.
`CCCCCCCC(=O)Oc1c(OC)ccc2cc3[n+](cc12)CCc1cc2c(cc1-3)OCO2` had a logP in data set [1] of 1.69. Moreover, the outcome in the data set on HepG2 was inactive.
As for `CCCCCCC(=O)Oc1c(OC)ccc2cc3[n+](cc12)CCc1cc2c(cc1-3)OCO2`, the logP in data set [1] worked out at 1.16. In addition, the result with HepG2 was inactive.
Turning to `COc1ccc2cc3[n+](cc2c1O)CCc1cc2c(cc1-3)OCO2` [BERBERRUBINE CHLORIDE], in data set [1], the logP is -1.06.
`CCOC(=O)Oc1c(OC)ccc2cc3[n+](cc12)CCc1cc2c(cc1-3)OCO2` displayed a logP in data set [1] of -1.18. For the same molecule, the result in the data set on HepG2 was inactive.
For `COc1ccc2cc3[n+](cc2c1OC(=O)C(C)(C)C)CCc1cc2c(cc1-3)OCO2` the same measures were -0.25 and “inactive”.
As for `COc1ccc2cc3[n+](cc2c1OC)CCc1cc2c(cc1-3)OCO2.[Cl-]` [BERBERINE CHLORIDE], the logP in data set [1] is -0.92. Moreover, the Activity in the data set with Rattus norvegicus [2] is given as 38%; in the data set with Rattus norvegicus [3] it was 27.4%.
Molecule `COc1ccc2cc3[n+](cc2c1OC(=O)c1ccccc1)CCc1cc2c(cc1-3)OCO2` gave a logP in data set [1] of 0.58. Besides, the outcome in the data set with HepG2 was inactive.
`CCCCCCCCCCCC(=O)Oc1c(OC)ccc2cc3[n+](cc12)CCc1cc2c(cc1-3)OCO2` displayed a logP in data set [1] of 3.8. Moreover, the outcome in the data set with HepG2 was inactive.
`CCCCCCCCCCCCCCCC(=O)Oc1c(OC)ccc2cc3[n+](cc12)CCc1cc2c(cc1-3)OCO2.[Cl-]` gave a logP in data set [1] of 5.91. Also, the Activity is 45.5% in the data set with Rattus norvegicus [2]; “Non-toxic” with Rattus norvegicus [4]; “Non-toxic” in the data set on Rattus norvegicus [5]; “Non-toxic” in the data set with Rattus norvegicus [6]; 35.8% with Rattus norvegicus [3]. Also, the result with HepG2 was inactive.
In data set [1], `COc1ccc2cc3[n+](cc2c1OCOC(=O)C(C)(C)C)CCc1cc2c(cc1-3)OCO2` displayed a logP of -0.06. In the data set on HepG2, the outcome was inactive.
The matching figures for `CCCCC(=O)Oc1c(OC)ccc2cc3[n+](cc12)CCc1cc2c(cc1-3)OCO2`: 0.1 and “inactive”.
With `CCCC(=O)Oc1c(OC)ccc2cc3[n+](cc12)CCc1cc2c(cc1-3)OCO2`, the logP in data set [1] is -0.43. Further, the outcome in the data set with HepG2 was inactive.
In data set [1], `COc1ccc2cc3[n+](cc2c1OC(=O)/C=C/c1ccccc1)CCc1cc2c(cc1-3)OCO2` yielded a logP of 1.03. Further, the outcome with HepG2 was inactive.
